Data on 14 compounds can be found in PubChem BioAssay (NCI).

Structures are written as SMILES.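 Following 48 hours of exposure in 96-well plates, responses at five concentrations were used to interpolate endpoints linearly. TGI: total growth inhibition.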 Some results are limits rather than exact numbers.

Experiment in all cases: NCI anticancer screen, dose series, 48 h
The test system of experiment [1] is 786-0 renal.
Experiment [2] deals with A498 renal.
For experiment [3], the system named is DU-145 prostate.
Experiment [4] deals with HCT-116 colon.
The subject of experiment [5] is HL-60(TB) leukemia.
Experiment [6] concerns MCF7 breast.
Experiment [7] has as its system NCI-H460 lung.
The test system of experiment [8] is SN12C renal.
The subject of experiment [9] is HCT-15 colon.
Experiment [10] relates to NCI-H522 lung.
For experiment [11], the system named is SNB-75 CNS.

As to `COc1ccc(C[n+]2cccc(O)c2)cc1`, the TGI in experiment [1], in [2], in experiment [3], in experiment [4], in experiment [5] and in [6] was over 100 µM in each case. The TGI in [7] and in [8] was over 100 µM in each case.

On to `OCC(O)C(O)C(O)C(O)CNCCO/N=C1/C(c2c(O)[nH]c3ccccc23)=Nc2ccccc21` (stereo not given), for which the TGI in experiment [1] is over 50 µM; in experiment [3], over 50 µM; in experiment [4] it was 38.2 µM; in experiment [9], over 50 µM; in experiment [5], 37.9 µM; in [6], 33.1 µM. For the same compound, the TGI is over 50 µM in experiment [7], 33 µM in experiment [10], 46.4 µM in [8] and 24.5 µM in [11].

For the compound `COc1ccc(N=C(CS(=O)c2ccc(C)cc2)C(F)(F)F)cc1` (stereo not given), the TGI in experiment [1] is over 100 µM; in experiment [3], over 100 µM; in experiment [4], over 100 µM; in experiment [9], over 100 µM; in [5] it was 50.9 µM; in experiment [6] it was over 100 µM. Besides, the TGI in [7], in experiment [10], in [8] and in experiment [11] was over 100 µM in each case.

Regarding `Cc1ccc(N=NN(C)C(C)C(O)Cc2ccccc2)cc1` (stereo not given), the TGI in experiment [1], in experiment [3], in experiment [4], in experiment [9], in experiment [5] and in [6] was over 100 µM throughout. Besides, the TGI in [7], in experiment [8] and in experiment [11] was over 100 µM throughout.

Turning to `CC1(c2nc3ccccc3[nH]2)CCC(C#N)C(C)(C)O1` (stereo not given), the TGI in experiment [1], in experiment [3], in [4], in experiment [9], in [5] and in experiment [6] was over 100 µM throughout. For the same compound, the TGI in [10], in experiment [8] and in [11] was over 100 µM throughout.

For `N#CC(NNC(=O)c1c(Cl)c(Cl)c(Cl)c(Cl)c1-c1nc2ccc(C(=O)c3ccccc3)cc2[nH]1)c1ccccc1` (stereo not given), the TGI in [1] was 42.9 µM; in experiment [3] it was over 100 µM; in experiment [4], over 100 µM; in [9], over 100 µM; in experiment [5], 45.6 µM; in experiment [6] it was 12.7 µM. In addition, the TGI in experiment [10] was determined as 18 µM; in experiment [8] it was 31.1 µM; in [11] it was 27.8 µM.

Take `O=c1ccn(Cc2ccccc2CCl)c(=O)[nH]1`: the TGI in experiment [1] is 38 µM; in experiment [3], over 100 µM; in experiment [4] it was 46 µM; in experiment [9] it was 35.8 µM; in experiment [5], over 100 µM; in [6], 77.9 µM. Further, the TGI is over 100 µM in [7], 43.9 µM in experiment [10], 59.4 µM in experiment [8] and over 100 µM in experiment [11].

Consider `CC(C)=CC1C(COC(=O)c2ccccc2Cl)C1(C)C` (stereo not given), for which the TGI in experiment [1] was over 100 µM; in [2], over 100 µM; in [3] it was over 100 µM; in experiment [4] it was over 100 µM; in [9], 75.4 µM; in experiment [5] it was 67.7 µM. Further, the TGI in experiment [7] is over 100 µM; in experiment [10], 49.5 µM; in experiment [8] it was over 100 µM.

`COc1ccc(C(=O)N2CCN(c3ccc4c(c3)OCC(=O)N4)CC2)cc1OC`: the TGI in [1], in experiment [3], in [4], in experiment [9], in experiment [5] and in [6] was over 100 µM throughout. Further, the TGI in experiment [7], in experiment [10], in experiment [8] and in [11] was over 100 µM in each case.

As to `CCOC(=O)c1cc(-c2ccc([N+](=O)[O-])cc2)c([N+](=O)[O-])[nH]1`, the TGI in experiment [1], in [3], in experiment [4], in experiment [9], in [7] and in [10] was over 10 µM each time. Besides, the TGI in [8] and in [11] was over 10 µM in each case.

Turning to `CC1OC(OC2C(OC(=O)[C@]34CCC(C)(C)CC3C3=CCC5[C@@]6(C)C[C@H](O)[C@H](OC7OC(COC8OC(CO)C(O)C(O)C8O)C(O)C(O)C7O)[C@@](C)(C(=O)O)C6CC[C@@]5(C)C3(C)CC4)OCC(O)C2O)C(O)C(O)C1OC1OCC(O)C(O)C1O` (stereo not given in full), the TGI in experiment [1], in experiment [2], in experiment [9], in experiment [5], in [7] and in [10] was over 100 µM throughout. For the same compound, the TGI in experiment [8] and in experiment [11] was over 100 µM each time.

On to `O=C1NC(=S)N/C1=C\c1ccc(Cl)cc1`, for which the TGI in [1], in experiment [3], in experiment [4], in [9], in experiment [6] and in experiment [10] was over 100 µM in each case. Also, the TGI in experiment [8] and in [11] was over 100 µM throughout.

Regarding `Cc1cc(N(CCC#N)CCC#N)ccc1/C=C1N=C(/C=C/c2ccccc2)N(c2ccc(S(N)(=O)=O)cc2)C\1=O`, the TGI in experiment [1], in [2], in experiment [4], in experiment [9], in experiment [5] and in experiment [7] was over 100 µM in each case. The TGI in experiment [10], in [8] and in experiment [11] was over 100 µM throughout.

On to `CCC(=O)N(c1ccccc1)C(C)CN1CCC(O)(c2cccc(C(F)(F)F)c2)CC1` (stereo not given), for which the TGI in experiment [1] is 40.1 µM; in [2] it was 66.3 µM; in experiment [4] it was 31.1 µM; in [9], 90.9 µM; in experiment [5] it was 39.3 µM; in [10] it was 39 µM. Also, the figures for the TGI in experiment [8] and in experiment [11] were over 100 µM and 76.3 µM, respectively.
